Here are results for 23 compounds from US20250179078A1, “INHIBITORS OF NLRP3” (PTC THERAPEUTICS, INC., priority 2022, published 2025).

Some results are limits rather than exact numbers.

The assay concerns the target T1, NLRP3 (Homo sapiens, UniProt Q96P20).
T1 construct: host or cells: THP-1 cells differentiated with PMA
Nature of the assay: IL-1β Secretion Assay (NLRP3-dependent IL1β secretion in THP1 cells). The format is cell-based. As to conditions: PMA-differentiated THP-1 cells; compounds incubated 20 h; 2.5 μM Nigericin 3 h; HTRF IL-1β readout; read-out: IC50 IL-1β Inhibition. The procedure:
Monocytic THP-1 cells (ATCC: TIB-202) were maintained in growth media consisting of RPMI 1640 medium (ThermoFisher, Cat #11875-085), 10% FBS (ThermoFisher) and 0.05 mM β-mercaptoethanol (ThermoFisher, Cat #21985-023), according to the provider's instructions. The cell concentration was adjusted to 7.5×10^5 cells/mL, and plated in complete growth media with a final concentration of 100 ng/mL phorbol 12-myristate 13-acetate (PMA, Sigma #P8139). Cells were seeded at 100 µL/well into a 96-well cell culture plate (ThermoFisher Cat #165305) and allowed to differentiate for 24 h in a cell culture incubator at 37° C. with 5% CO2. Cells were washed 1× with 100 ul PBS and replaced with fresh RPMI+5% FBS. Compounds were serial diluted in DMSO with 3 fold dilution for a total of 7 concentrations. Diluted compounds were added to the cells at a ratio of 1:200 and incubated for 20 h. The NLRP3 inflammasome was activated with the addition of 2.5 μM Nigericin (Sigma: Cat #SML1779-1 ml), for 3 h. After incubation, 15 μL of conditioned media was removed and assayed for levels of IL-1β using the HTRF IL-1β assay kit (Cisbio: Cat #62HIL1BPEH) as per the manufacturer's instructions.
Compounds, once produced and prepared according to the present invention, can be assessed in variety of assays to characterize their activities. For example, NLRP3-dependent IL1β secretion was evaluated in THP1 cells. IC50 values of IL1β inhibition were calculated from the plot of percentage of inhibition versus the inhibitor concentration by a logistics fit. TABLE I depict examples of compounds according to generic Formula I. Data which is <1 nM is listed as *****; data 1-10 nM is listed as ****; data 10-100 nM is listed as ***, data 100-300 nM is listed as **, data ≥300 nM is listed as *.

T1 sequence (Q96P20 whole entry): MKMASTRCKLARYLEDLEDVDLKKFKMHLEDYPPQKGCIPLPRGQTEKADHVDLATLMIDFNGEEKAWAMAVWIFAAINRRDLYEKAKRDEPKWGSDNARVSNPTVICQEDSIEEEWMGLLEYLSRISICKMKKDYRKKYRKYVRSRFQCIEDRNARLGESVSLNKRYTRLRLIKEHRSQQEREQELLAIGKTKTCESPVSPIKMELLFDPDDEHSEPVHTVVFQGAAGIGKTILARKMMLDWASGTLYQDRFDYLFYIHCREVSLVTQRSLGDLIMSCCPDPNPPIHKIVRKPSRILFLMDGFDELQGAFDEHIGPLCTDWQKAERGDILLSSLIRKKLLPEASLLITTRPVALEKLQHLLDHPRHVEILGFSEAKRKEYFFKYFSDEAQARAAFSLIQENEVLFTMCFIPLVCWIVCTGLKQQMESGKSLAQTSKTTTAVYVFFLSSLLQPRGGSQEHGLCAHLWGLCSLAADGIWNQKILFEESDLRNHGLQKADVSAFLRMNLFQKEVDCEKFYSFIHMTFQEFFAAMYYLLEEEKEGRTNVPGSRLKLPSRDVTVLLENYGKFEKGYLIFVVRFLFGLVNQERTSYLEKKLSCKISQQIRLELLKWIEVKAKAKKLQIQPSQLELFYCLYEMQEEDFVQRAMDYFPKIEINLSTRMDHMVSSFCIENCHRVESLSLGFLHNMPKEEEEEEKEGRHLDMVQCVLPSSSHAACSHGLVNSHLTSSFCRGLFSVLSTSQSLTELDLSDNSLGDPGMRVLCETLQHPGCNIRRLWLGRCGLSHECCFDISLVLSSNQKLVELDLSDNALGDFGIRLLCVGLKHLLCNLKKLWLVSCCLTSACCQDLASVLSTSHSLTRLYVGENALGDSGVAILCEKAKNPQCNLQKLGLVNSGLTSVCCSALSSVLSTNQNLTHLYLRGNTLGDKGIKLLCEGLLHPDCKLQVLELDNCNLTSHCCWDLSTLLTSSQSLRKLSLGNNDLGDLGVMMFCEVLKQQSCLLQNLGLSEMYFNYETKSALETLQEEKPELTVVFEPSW

As usually defined, the IC50 is the concentration needed to halve the response being measured. On to `Cc1ccc(-c2nnc(N[C@@H]3CCCN(C)C3)n3cncc23)c(C(F)(F)F)c1` [Compound 206, N-[(3R)-1-methylpiperidin-3-yl]-1-[4-methyl-2-(trifluoromethyl)phenyl]imidazo[1,5-d][1,2,4]triazin-4-amine], for which the IC50 is less than 1 nM. Next, `CCN1CCC[C@@H](Nc2nnc(-c3ccc(OC)c(OC)c3OC)c3cc(C)nn23)C1` [Compound 370, N-[(3R)-1-ethylpiperidin-3-yl]-2-methyl-4-(2,3,4-trimethoxyphenyl)pyrazolo[1,5-d][1,2,4]triazin-7-amine]: 10 to 100 nM. For `OCCN1CCC[C@@H](Nc2nnc(-c3ccc(C(F)(F)F)cc3OC3CC3)c3cccn23)C1` [Compound 179, 2-[(3R)-3-({1-[2-(cyclopropyloxy)-4-(trifluoromethyl)phenyl]pyrrolo[1,2-d][1,2,4]triazin-4-yl}amino)piperidin-1-yl]ethan-1-ol] the value was 10 to 100 nM; for `COc1ccc(-c2nnc(N[C@@H]3CCCN(C)C3)n3cccc23)c(OC(F)(F)F)c1` [Compound 8, 1-[4-methoxy-2-(trifluoromethoxy)phenyl]-N-[(3R)-1-methylpiperidin-3-yl]pyrrolo[1,2-d][1,2,4]triazin-4-amine], 1 to 10 nM; for `COc1ccc(-c2nnc(Nc3cc[nH]n3)n3ccc(F)c23)c(C(F)(F)F)c1` [Compound 117, 8-fluoro-1-[4-methoxy-2-(trifluoromethyl)phenyl]-N-(1H-pyrazol-3-yl)pyrrolo[1,2-d][1,2,4]triazin-4-amine], 10 to 100 nM. Next, `OC[C@H]1C[C@@H](Nc2nnc(-c3ccc(C4CC4)cc3CC(F)(F)F)c3cncn23)C1` [Compound 349, [(1s,3s)-3-({1-[4-cyclopropyl-2-(2,2,2-trifluoroethyl)phenyl]imidazo[1,5-d][1,2,4]triazin-4-yl}amino)cyclobutyl]methanol]: 1 to 10 nM; `CN1CCC[C@@H](Nc2nnc(-c3ccc(C(F)(F)F)cc3C(F)(F)F)c3c(F)ccn23)C1` [Compound 28, 1-[2,4-bis(trifluoromethyl)phenyl]-8-fluoro-N-[(3R)-1-methylpiperidin-3-yl]pyrrolo[1,2-d][1,2,4]triazin-4-amine]: 1 to 10 nM. Turning to `COc1ccc(-c2nnc(N[C@H]3CCC[C@@H](CO)C3)n3cccc23)c(OC(F)F)c1` [Compound 176, [(1R,3S)-3-({1-[2-(difluoromethoxy)-4-methoxyphenyl]pyrrolo[1,2-d][1,2,4]triazin-4-yl}amino)cyclohexyl]methanol], the IC50 fell in the range of 10 to 100 nM. For `CCN1CCC[C@@H](Nc2nnc(-c3ccc(C(F)(F)F)cc3Cl)c3cc(C)nn23)C1` [Compound 375, 4-[2-chloro-4-(trifluoromethyl)phenyl]-N-[(3R)-1-ethylpiperidin-3-yl]-2-methylpyrazolo[1,5-d][1,2,4]triazin-7-amine] the value was 1 to 10 nM; for `COc1ccc(-c2nnc(N[C@H]3C[C@@](C)(O)C3)n3ccc(F)c23)c(OC(F)F)c1` [Compound 58, (1s,3s)-3-({1-[2-(difluoromethoxy)-4-methoxyphenyl]-8-fluoropyrrolo[1,2-d][1,2,4]triazin-4-yl}amino)-1-methylcyclobutan-1-ol], 10 to 100 nM. As for `C[C@]1(O)C[C@@H](Nc2nnc(-c3ccc(C(F)(F)F)cc3C(F)(F)F)c3cncn23)C1` [Compound 218, (1s,3s)-3-({1-[2,4-bis(trifluoromethyl)phenyl]imidazo[1,5-d][1,2,4]triazin-4-yl}amino)-1-methylcyclobutan-1-ol], the IC50 was 1 to 10 nM.

With `O[C@H]1CCCC[C@@H]1Nc1nnc(-c2ccc(C(F)(F)F)cc2OC(F)(F)F)c2cncn12` [Compound 290], the IC50 is 10 to 100 nM.

Regarding `CCN1CC[C@@H](O)[C@@H](Nc2nnc(-c3ccc(OC)cc3OC(F)(F)F)c3cc(C)cn23)C1` [Compound 135, (3S,4R)-1-ethyl-3-({1-[4-methoxy-2-(trifluoromethoxy)phenyl]-7-methylpyrrolo[1,2-d][1,2,4]triazin-4-yl}amino)piperidin-4-ol], the IC50 is less than 1 nM. For `CCN1CCC[C@@H](Nc2nnc(-c3ccc(OC)cc3OC(F)(F)F)c3cccn23)C1` [Compound 59] the value was less than 1 nM.

With `CN1C[C@H](F)C[C@@H](Nc2nnc(-c3ccc(C(F)(F)F)cc3C(F)(F)F)c3c(F)ccn23)C1` [Compound 31, 1-[2,4-bis(trifluoromethyl)phenyl]-8-fluoro-N-[(3R,5R)-5-fluoro-1-methylpiperidin-3-yl]pyrrolo[1,2-d][1,2,4]triazin-4-amine], the IC50 was 1 to 10 nM. For `CC(C)(O)C1CC(Nc2nnc(-c3ccc(C(F)(F)F)cc3CC(F)(F)F)c3cncn23)C1` (centres unmarked) [Compound 339, 2-[3-({1-[2-(2,2,2-trifluoroethyl)-4-(trifluoromethyl)phenyl]imidazo[1,5-d][1,2,4]triazin-4-yl}amino)cyclobutyl]propan-2-ol] the value was 10 to 100 nM; for `Cc1ncn2c(N[C@@H]3CCCC[C@H]3O)nnc(-c3ccc(C(F)(F)F)cc3CC(F)(F)F)c12` [Compound 280, (1R,2R)-2-({8-methyl-1-[2-(2,2,2-trifluoroethyl)-4-(trifluoromethyl)phenyl]imidazo[1,5-d][1,2,4]triazin-4-yl}amino)cyclohexan-1-ol], 1 to 10 nM; for `COc1ccc(-c2nnc(N[C@@H]3C[C@@H](F)CN(C)C3)n3cncc23)c(OC(F)F)c1` [Compound 224, 1-[2-(difluoromethoxy)-4-methoxyphenyl]-N-[(3R,5R)-5-fluoro-1-methylpiperidin-3-yl]imidazo[1,5-d][1,2,4]triazin-4-amine], 1 to 10 nM. Next, `CCN1C[C@H](F)C[C@@H](Nc2nnc(-c3ccc(OC)cc3OC(F)(F)F)c3c(F)ccn23)C1` [Compound 53, N-[(3R,5R)-1-ethyl-5-fluoropiperidin-3-yl]-8-fluoro-1-[4-methoxy-2-(trifluoromethoxy)phenyl]pyrrolo[1,2-d][1,2,4]triazin-4-amine]: 1 to 10 nM. Next, `CCN1CCC[C@@H](Nc2nnc(-c3ccc(Br)cc3OC(F)(F)F)c3cc(C)nn23)C1` [Compound 357, 4-[4-bromo-2-(trifluoromethoxy)phenyl]-N-[(3R)-1-ethylpiperidin-3-yl]-2-methylpyrazolo[1,5-d][1,2,4]triazin-7-amine]: less than 1 nM. For `Cc1cc2c(-c3ccc(C4CC4)cc3OC(F)F)nnc(N[C@@H]3CCCN(C)C3)n2c1` [Compound 24, 1-[4-cyclopropyl-2-(difluoromethoxy)phenyl]-7-methyl-N-[(3R)-1-methylpiperidin-3-yl]pyrrolo[1,2-d][1,2,4]triazin-4-amine], the IC50 was less than 1 nM. Next, `O=C1NCCC1Nc1nnc(-c2ccc(OC(F)F)cc2OC(F)(F)F)c2cccn12` (centres unmarked) [Compound 154, 3-({1-[4-(difluoromethoxy)-2-(trifluoromethoxy)phenyl]pyrrolo[1,2-d][1,2,4]triazin-4-yl}amino)pyrrolidin-2-one]: 1 to 10 nM; `C[C@]1(O)C[C@@H](Nc2nnc(-c3ccc(C4CC4)cc3OC(F)F)c3cncn23)C1` [Compound 345, (1s,3s)-3-({1-[4-cyclopropyl-2-(difluoromethoxy)phenyl]imidazo[1,5-d][1,2,4]triazin-4-yl}amino)-1-methylcyclobutan-1-ol]: 1 to 10 nM.
